One test concerns the target T1, KRAS G12C (Homo sapiens, UniProt P01116, G12C).
T1 construct: Kras (aa 2-169), GST; purchased Reaction Biology Corporation (RBC)
The experiment in a line: KRAS G12C nucleotide exchange assay (SOS1 mediated, HTRF). The test is classed as biochemical. The settings on record: 1 hr pre-incubation at RT, read-out: IC50 (inhibition of KRas G12C). On the procedure:
Exemplary compounds were tested for ability to inhibit KRas G12C.
KRAS target engagement (IC50 determination) was performed using a KRAS G12C nucleotide exchange assay (Reaction Biology Corporation). Specifically, compounds were tested against KRAS G12C in 10-point concentration IC50 mode with 3-fold serial dilution at a starting concentration of 10 μM. ARS1620 was used as a control. Compounds were pre-incubated with protein for 1 hr at RT. Parameters for the assay were:
In the method, Kras was mixed with a-GST Tb antibody (1.5× solution) and […] was delivered to reaction wells. Compounds were delivered using acoustic dispenser (Echo, Labcyte). Kras/aGST-Tb Ab/compound mixture was incubated for 1 hour at room temperature. A 3× solution of SOS1 and GTP* was prepared in reaction buffer. A […] aliquot of SOS1/GTP* solution was added to reaction well to initiate the exchange reaction. No—SOS1 reaction or max compound concentration was used as blank. IC50 determination was performed using a Sigmoidal dose response (variable slope) equation.

Another test concerns HeLa cells. The experiment in a line: Cellular growth inhibition assay (CellTiter-Glo), HeLa cells. Type of test: cell-based. The settings on record: Homo sapiens, 72 h, three days compound treatment, CellTiter-Glo 2.0, read-out: CTG HELA GI50. The method, boiled down: (§1)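 HEK293 or HeLa cells seeded at 500 cells/well in DMEM with 10% FBS, treated after 24 h with titrated compound for three days at 37 °C, 5% CO2. CellTiter-Glo 2.0 luminescence read on Day 0 and Day 3, normalized to DMSO, four-parameter fit giving GI50.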
(In general: In ATP-based viability assays light output follows the ATP content of the culture.)

In another test the test system is HEK293 cells. In words: Cellular growth inhibition assay (CellTiter-Glo), HEK293 cells. The test is classed as cell-based. The settings on record: Homo sapiens, 72 h, three days compound treatment, CellTiter-Glo 2.0, read-out: CTG HEK293 GI50. The method, boiled down: as §1

The record followed here is patent US20250032623A1, “HETEROBIFUNCTIONAL COMPOUNDS AND THEIR USE IN TREATING DISEASE” (HALDA THERAPEUTICS OPCO, INC., priority 2021, published 2025).

T1 sequence (P01116 2-169 isoform P01116-2 G12C): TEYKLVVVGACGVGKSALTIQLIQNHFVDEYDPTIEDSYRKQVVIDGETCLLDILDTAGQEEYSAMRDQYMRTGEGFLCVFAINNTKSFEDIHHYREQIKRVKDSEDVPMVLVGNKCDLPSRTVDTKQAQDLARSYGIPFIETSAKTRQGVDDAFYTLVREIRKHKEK

As to `CN(C/C=C/C(=O)N1CCN(c2nc(OC[C@@H]3CCCN3C)nc3c2CCN(c2cccc4cccc(Cl)c24)C3)C[C@@H]1CC#N)CCOCCOCCOCCOCCOCCOCCON(C)C(=O)N1N=C(c2cc(F)ccc2F)SC1(CCCN)c1ccccc1` (stereo partly shown) [Compound I-78], the IC50 on KRAS G12C was less than 0.1 µM. The GI50 with HeLa cells is less than 0.5 µM; in the test with HEK293 cells, 0.5 to 1.5 µM.
As for `CN(C/C=C/C(=O)N1CCN(c2nc(OC[C@@H]3CCCN3C)nc3c2CCN(c2cccc4cccc(Cl)c24)C3)C[C@@H]1CC#N)CCOCCOCCOCCOCCOCCOCCOCCOCCON(C)C(=O)N1N=C(c2cc(F)ccc2F)SC1(CCCN)c1ccccc1` (stereo partly shown) [Compound I-80], the IC50 on KRAS G12C is less than 0.1 µM. The GI50 in the test with HeLa cells is less than 0.5 µM; in the test with HEK293 cells it was 0.5 to 1.5 µM.
`CC[C@@H]1C(=O)N(C)c2cnc(Nc3ccc(C(=O)NCCOCCN4CCN(C/C=C/C(=O)N5CCN(c6nc(OC[C@@H]7CCCN7C)nc7c6CCN(c6cccc8cccc(Cl)c68)C7)C[C@@H]5CC#N)CC4)cc3OC)nc2N1C1CCCC1` [Compound I-82]: the IC50 at KRAS G12C is less than 0.1 µM. Further, the GI50 in the test on HeLa cells and in the test with HEK293 cells was less than 0.5 µM throughout.
Regarding `C=C(F)C(=O)N1CCN(c2nc(OC[C@@H]3CCCN3CCCOCCOCCn3cc(CNc4cc(N5CCCC[C@H]5CCO)nc5c(CC)cnn45)ccc3=O)nc3c2CCN(c2cccc4cccc(Cl)c24)C3)C[C@@H]1CC#N` [Compound I-87, 2-[(2S)-4-[7-(8-chloro-1-naphthyl)-2-[[(2S)-1-[3-[2-[2-[5-[[[3-ethyl-5-[(2S)-2-(2-hydroxyethyl)-1-piperidyl]pyrazolo[1,5-a]pyrimidin-7-yl]amino]methyl]-2-oxo-1-pyridyl]ethoxy]ethoxy]propyl]pyrrolidin-2-yl]methoxy]-6,8-dihydro-5H-pyrido[3,4-d]pyrimidin-4-yl]-1-(2-fluoroprop-2-enoyl)piperazin-2-yl]acetonitrile], the IC50 on KRAS G12C is less than 0.1 µM. For the same compound, the 50% growth inhibitory concentration (GI50) in the test on HeLa cells and in the test with HEK293 cells was 0.5 to 1.5 µM each time.
With `C=C(F)C(=O)N1CCN(c2nc(OC[C@@H]3CCCN3CCCOCCOCCOc3ccc(CNc4cc(N5CCCC[C@H]5CCO)nc5c(CC)cnn45)cn3)nc3c2CCN(c2cccc4cccc(Cl)c24)C3)C[C@@H]1CC#N` [Compound I-88, 2-[(2S)-4-[7-(8-chloro-1-naphthyl)-2-[[(2S)-1-[3-[2-[2-S[[5-[[[3-ethyl-5-[(2S)-2-(2-hydroxyethyl)-1-piperidyl]pyrazolo[1,5-a]pyrimidin-7-yl]amino]methyl]-2-pyridyl]oxy]ethoxy]ethoxy]propyl]pyrrolidin-2-yl]methoxy]-6,8-dihydro-5H-pyrido[3,4-d]pyrimidin-4-yl]-1-(2-fluoroprop-2-enoyl)piperazin-2-yl]acetonitrile], the IC50 on KRAS G12C was less than 0.1 µM. Also, the GI50 in the test on HeLa cells and in the test with HEK293 cells was 0.5 to 1.5 µM in each case.
In the case of `CCc1cnn2c(NCc3ccc(OCCOCCOCCN(C)C/C=C/C(=O)N4CCN(c5nc(OC[C@@H]6CCCN6C)nc6c5CCN(c5cccc7cccc(Cl)c57)C6)C[C@@H]4CC#N)nc3)cc(N3CCCC[C@H]3CCO)nc12` [Compound I-89], the IC50 on KRAS G12C was less than 0.1 µM. Moreover, the GI50 with HeLa cells was less than 0.5 µM; in the test with HEK293 cells it was 0.5 to 1.5 µM.
For `CCc1cnn2c(NCc3ccc(OCCN(C)C/C=C/C(=O)N4CCN(c5nc(OC[C@@H]6CCCN6C)nc6c5CCN(c5cccc7cccc(Cl)c57)C6)C[C@@H]4CC#N)nc3)cc(N3CCCC[C@H]3CCO)nc12` [Compound I-91, 2-[(2S)-4-[7-(8-chloro-1-naphthyl)-2-[[(2S)-1-methylpyrrolidin-2-yl]methoxy]-6,8-dihydro-5H-pyrido[3,4-d]pyrimidin-4-yl]-1-[(E)-4-[2-[[5-[[[3-ethyl-5-[(2S)-2-(2-hydroxyethyl)-1-piperidyl]pyrazolo [1,5-a]pyrimidin-7-yl]amino]methyl]-2-pyridyl]oxy]ethyl-methyl-amino]but-2-enoyl]piperazin-2-yl]acetonitrile] the same measures were less than 0.1 µM, less than 0.5 µM and less than 0.5 µM.
For `CCc1cnn2c(NCc3ccc(OCCOCCOCCOCCOCCOCCOCCOCCOCCN(C)C/C=C/C(=O)N4CCN(c5nc(OC[C@@H]6CCCN6C)nc6c5CCN(c5cccc7cccc(Cl)c57)C6)C[C@@H]4CC#N)nc3)cc(N3CCCC[C@H]3CCO)nc12` [Compound I-93, 2-((S)-4-(7-(8-chloronaphthalen-1-yl)-2-(((S)-1-methylpyrrolidin-2-yl)methoxy)-5,6,7,8-tetrahydropyrido[3,4d]pyrimidin4-yl)-1-((E)-1-((5-(((3-ethyl-5-((S)-2-(2-hydroxyethyl)piperidin-1-yl)pyrazolo[1,5-a]pyrimidin-7-yl)amino)methyl)pyridin-2-yl)oxy)-27-methyl-3,6,9,12,15,18,21,24-octaoxa-27-azahentriacont-29-en-31-oyl)piperazin-2-yl)acetonitrile] the same measures were less than 0.1 µM, less than 0.5 µM and 1.5 to 5 µM.
On the same counts, the results for `CCc1cnn2c(NCc3ccc(OCCOCCOCCOCCOCCOCCOCCN(C)C/C=C/C(=O)N4CCN(c5nc(OC[C@@H]6CCCN6C)nc6c5CCN(c5cccc7cccc(Cl)c57)C6)C[C@@H]4CC#N)nc3)cc(N3CCCC[C@H]3CCO)nc12` [Compound I-94, 2-((S)-4-(7-(8-chloronaphthalen-1-yl)-2-(((S)-1-methylpyrrolidin-2-yl)methoxy) -5,6,7,8-tetrahydropyrido[3,4-d]pyrimidin-4-yl)-1-((E)-1-((5-(((3-ethyl-5-((S)-2-(2-hydroxyethyl)piperidin-1-yl)pyrazolo[1,5-a]pyrimidin-7-yl)amino)methyl)pyridin-2-yl)oxy)-21-methyl-3,6,9,12,15,18-hexaoxa-21-azapentacos-23-en-25-oyl)piperazin-2-yl)acetonitrile] are less than 0.1 µM, 0.5 to 1.5 µM and 1.5 to 5 µM.
Take `CCc1cnn2c(NCc3ccc(OCCOCCOCCOCCOCCOCCOCCOC/C=C/C(=O)N4CCN(c5nc(OC[C@@H]6CCCN6C)nc6c5CCN(c5cccc7cccc(Cl)c57)C6)C[C@@H]4CC#N)nc3)cc(N3CCCC[C@H]3CCO)nc12` [Compound I-95]: the IC50 at KRAS G12C was 1 to 5 µM. Besides, the figures for the GI50 with HeLa cells and in the test with HEK293 cells were greater than 5 µM and 1.5 to 5 µM, respectively.
Consider `C=C(F)C(=O)N1CCN(c2nc(OC[C@@H]3CCCN3CCCN(C)C(=O)N3N=C(c4cc(F)ccc4F)S[C@@]3(CCCN)c3ccccc3)nc3c2CCN(c2cccc4cccc(Cl)c24)C3)C[C@@H]1CC#N` [Compound I-97, (2S)-2-(3-aminopropyl)-N-[3-[(2S)-2-[[7-(8-chloro-1-naphthyl)-4-[(3S)-3-(cyanomethyl)-4-(2-fluoroprop-2-enoyl)piperazin-1-yl]-6,8-dihydro-SH-pyrido[3,4-d]pyrimidin-2-yl]oxymethyl]pyrrolidin-1-yl]propyl]-5-(2,5-difluorophenyl)-N-methyl-2-phenyl-1,3,4-thiadiazole-3-carboxamide], for which the IC50 at KRAS G12C is less than 0.1 µM. Further, in the test on HeLa cells, the GI50 was 0.5 to 1.5 µM.
Regarding `C=C(F)C(=O)N1CCN(c2nc(OC[C@@H]3CCCN3CCCOCCOCCOCCOCCN(C)C(=O)N3N=C(c4cc(F)ccc4F)S[C@@]3(CCCN)c3ccccc3)nc3c2CCN(c2cccc4cccc(Cl)c24)C3)C[C@@H]1CC#N` [Compound I-98, 2-(3-aminopropyl)-N-[2-[2-[2-[2-[3-[(2S)-2-[[7-(8-chloro-1-naphthyl)-4-[(3S)-3-(cyanomethyl)-4-(2-fluoroprop-2-enoyl)piperazin-1-yl]-6,8-dihydro-5H-pyrido[3,4-d]pyrimidin-2-yl]oxymethyl]pyrrolidin-1-yl]propoxy]ethoxy]ethoxy]ethoxy]ethyl]-5-(2,5-difluorophenyl)-N-methyl-2-phenyl-1,3,4-thiadiazole-3-carboxamide], the IC50 at KRAS G12C is less than 0.1 µM. Further, the GI50 in the test with HeLa cells fell in the range of 0.5 to 1.5 µM; in the test with HEK293 cells it was 1.5 to 5 µM.
In the case of `C=C(F)C(=O)N1CCN(c2nc(OC[C@@H]3CCCN3CCCOCCOCCOCCOCCNC(=O)c3ccc(Nc4ncc5c(n4)N(C4CCCC4)[C@H](CC)C(=O)N5C)c(OC)c3)nc3c2CCN(c2cccc4cccc(Cl)c24)C3)C[C@@H]1CC#N` [Compound I-105, N-[2-[2-[2-[2-[3-[(2S)-2-[[7-(8-chloro-1-naphthyl)-4-[(3S)-3-(cyanomethyl)-4-(2-fluoroprop-2-enoyl)piperazin-1-yl]-6,8-dihydro-5H-pyrido[3,4-d]pyrimidin-2-yl]oxymethyl]pyrrolidin-1-yl]propoxy]ethoxy]ethoxy]ethoxy]ethyl]-4-[[(7R)-8-cyclopentyl-7-ethyl-5-methyl-6-oxo-7H-pteridin-2-yl]amino]-3-methoxy-benzamide], the IC50 at KRAS G12C is less than 0.1 µM. The 50% growth inhibitory concentration (GI50) in the test with HEK293 cells was in the range of 0.5 to 1.5 µM.

For orientation: IC50 means the concentration at which inhibition is half-maximal. As usually defined, the GI50 is the concentration at which growth is held to half of that of the control.
